Measured values taken from ChEMBL document CHEMBL1201862, “PubChem BioAssay data set” (2004).
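Grown in 96-well plates, cells were treated for 48 hours with each compound at five concentrations. Insufficient inhibition: endpoint recorded as highest concentration tested. Abbreviation: GI50, concentration required for 50% inhibition of growth.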 Calls of active or inactive are those of the source. No stated cut-off is given here; in the data, active = GI50 up to about 1.1 µM and inactive = higher.

What was measured:
Experiment in all cases: NCI anticancer screen, dose series, 48 h
[1] = system: CAKI-1
[2] = system: CCRF-CEM
[3] = system: COLO 205
[4] = system: HCC 2998
[5] = system: IGROV-1
[6] = system: MDA-N
[7] = system: Malme-3M
[8] = system: NCI-H226
[9] = system: NCI-H23
[10] = system: NCI-H460
[11] = system: OVCAR-5
[12] = system: PC-3
[13] = system: RXF 393
[14] = system: SF-268
[15] = system: SF-539
[16] = system: SK-MEL-2
[17] = system: SN12C
[18] = system: SNB-75
[19] = system: TK-10
[20] = system: UO-31

Measured: GI50

C[C@H](N)C(=O)Nc1ccc(-c2nc3ccccc3s2)cc1
inactive: [1] 17.1 µM | [2] 10.2 µM | [3] 18.6 µM | [4] 20.9 µM | [5] 15.2 µM | [6] 18.7 µM | [7] 19.1 µM | [8] 26.8 µM | [9] 32.2 µM | [10] 16.9 µM | [11] 18.7 µM | [12] 20.2 µM | [13] 29.3 µM | [14] 41.3 µM | [15] 36.9 µM | [16] 28.6 µM | [17] 24.8 µM | [18] 18 µM | [19] 24.5 µM | [20] 12.3 µM

CN1CCN(c2ccc3nc(-c4cc(O)c5c(nc(CO)n5C)c4O)[nH]c3n2)CC1
inactive: [1] > 100 µM | [2] 18.8 µM | [3] 15.9 µM | [4] 39.9 µM | [5] 64.6 µM | [6] 34.2 µM | [7] 18.4 µM | [8] 22.7 µM | [9] 64.3 µM | [10] 55.6 µM | [11] > 100 µM | [12] 32.3 µM | [13] 28.7 µM | [14] 48.1 µM | [15] 17.4 µM | [16] 11 µM | [17] 16.7 µM | [18] 20.6 µM | [20] 55.1 µM

CCOC(=O)c1c(N2CCOCC2)[nH]c(=O)c(C(c2c(O)c(C(=O)OCC)c(N3CCOCC3)[nH]c2=O)C(C)C)c1O
inactive: [1] > 100 µM | [2] > 100 µM | [3] > 100 µM | [4] > 100 µM | [6] > 100 µM | [7] > 100 µM | [8] > 100 µM | [9] > 100 µM | [10] > 100 µM | [11] 73.8 µM | [12] > 100 µM | [13] > 100 µM | [14] > 100 µM | [15] > 100 µM | [16] > 100 µM | [17] > 100 µM | [18] 22.4 µM | [19] > 100 µM | [20] > 100 µM

CNc1cc2oc(=O)cc(C)c2cc1C
inactive: [1] > 100 µM | [2] > 100 µM | [3] > 100 µM | [4] > 100 µM | [5] > 100 µM | [6] > 100 µM | [7] > 100 µM | [8] > 100 µM | [9] > 100 µM | [10] > 100 µM | [11] > 100 µM | [12] > 100 µM | [13] > 100 µM | [14] > 100 µM | [15] > 100 µM | [16] > 100 µM | [17] > 100 µM | [18] 85.3 µM | [19] 86.3 µM

CCCCCCCCCCCCc1ccc(S(=O)(=O)O)cc1
inactive: [1] > 100 µM | [2] > 100 µM | [3] > 100 µM | [4] > 100 µM | [5] 11.5 µM | [6] > 100 µM | [7] > 100 µM | [8] 90.6 µM | [9] > 100 µM | [10] > 100 µM | [11] > 100 µM | [12] > 100 µM | [13] > 100 µM | [14] > 100 µM | [15] > 100 µM | [17] > 100 µM | [18] > 100 µM | [19] > 100 µM | [20] > 100 µM

O=c1[nH][nH]c(=O)n1Cc1cccc(Cn2c(=O)[nH][nH]c2=O)c1
inactive: [1] > 100 µM | [2] > 100 µM | [3] > 100 µM | [4] > 100 µM | [6] > 100 µM | [7] > 100 µM | [8] > 100 µM | [9] > 100 µM | [10] > 100 µM | [11] > 100 µM | [12] > 100 µM | [13] > 100 µM | [14] > 100 µM | [15] > 100 µM | [16] > 100 µM | [17] > 100 µM | [18] > 100 µM | [19] > 100 µM | [20] > 100 µM

NCCCN(CCCN)CCc1cn(C(=O)c2ccccc2)cn1
inactive: [1] 4.46 µM | [2] 2.17 µM | [3] 3.14 µM | [4] 4.52 µM | [5] 4.19 µM | [6] 9.1 µM | [7] 14.7 µM | [8] 9.64 µM | [9] 13.2 µM | [10] 15.7 µM | [11] 16.2 µM | [12] 8.63 µM | [13] 2.97 µM | [14] 7.8 µM | [15] 13.2 µM | [16] 9.1 µM | [17] 6.41 µM | [18] 6.07 µM | [19] 5.33 µM

C[As+](C)(c1ccc(Br)c([N+](=O)[O-])c1)c1ccc(Br)c([N+](=O)[O-])c1
inactive: [1] > 100 µM | [3] > 100 µM | [4] > 100 µM | [5] > 100 µM | [6] > 100 µM | [7] 18.5 µM | [8] > 100 µM | [9] > 100 µM | [10] > 100 µM | [11] > 100 µM | [12] > 100 µM | [13] > 100 µM | [14] > 100 µM | [15] > 100 µM | [16] > 100 µM | [17] > 100 µM | [18] > 100 µM | [19] > 100 µM | [20] > 100 µM

C(=C\c1cc(-c2ccc3ccccc3n2)nc2ccc3ccccc3c12)/c1ccc2ccccc2n1
inactive: [1] > 100 µM | [2] > 100 µM | [3] > 100 µM | [4] > 100 µM | [5] > 100 µM | [6] > 100 µM | [7] > 100 µM | [8] > 100 µM | [9] > 10 µM | [10] > 100 µM | [11] > 100 µM | [12] > 100 µM | [13] > 100 µM | [14] 74.1 µM | [15] 62.2 µM | [17] > 100 µM | [18] 24 µM | [19] > 100 µM | [20] > 100 µM

CCOC(=O)c1c(N2CCOCC2)[nH]c(=O)c(C(c2ccc(Cl)c([N+](=O)[O-])c2)c2c(O)c(C(=O)OCC)c(N3CCOCC3)[nH]c2=O)c1O
inactive: [1] 82.6 µM | [2] 4.76 µM | [3] > 100 µM | [4] > 100 µM | [6] 26.1 µM | [7] 41.4 µM | [8] > 100 µM | [9] 25.8 µM | [10] > 100 µM | [11] > 100 µM | [12] 14.2 µM | [13] > 100 µM | [14] 44.2 µM | [15] 26.5 µM | [17] 20.5 µM | [18] 48.1 µM | [19] 39.9 µM | [20] 34 µM
